Measurements reported in patent publication US20250205204A1, “Transcription Factor Brn2 Inhibitory Compounds for Use as Therapeutics” (The University of British Columbia, priority 2021, published 2025).
Read-outs that look alike come from different tables or passages of the source.

Key:
[1] = Metabolic stability in liver microsomes (MLM); format: in vitro ADME, mice; settings: 0.25 mg/mL protein; for half-life at 1 μM: mouse, liver microsomes, pH 7.4, 1 μM compound, read-out: T1/2 in mins (MLM); for Met Stab % (60 mins) MLM: percent remaining at 60 min, 1 μM compound, 1 mM NADPH
Experimental: Preparation of Potassium Phosphate Buffer, 50 mM (pH 7.4)
Potassium phosphate buffer (Kphos) was prepared by adding 0.647 g potassium phosphate monobasic (KH2PO4) and 3.527 g potassium phosphate dibasic (KH2PO4) to 400 mL of Milli-Q™ water. pH of the buffer was adjusted to 7.4 and volume was made up to 500 mL.
Preparation of Microsomes
Stock solutions of BRN2 inhibitors were prepared in DMSO at a concentration of 1 mM
Preparation of NADPH Solution
• Total Incubation volume: 100 μL • Compound concentration: 1 μM • Protein Concentration: 0.25 mg/mL • NADPH: 1 mM • Final DMSO contain: 0.1% • Number of replicates: 2 • Time points: 0, 5, 15, 30 and 60 min
From the above mix, 70 μL was added to individual wells of 96 well reaction plates and pre-incubated in a 37° C. water bath for 5 min. […] Reactions without NADPH and buffer controls (minus NADPH) at 0 min and 60 min were also incubated to rule out non-NADPH metabolism or chemical instability in the incubation buffer. All reactions were terminated using 100 μL of ice-cold acetonitrile containing internal standard at 0, 5, 15, 30 and 60 min.
Samples were monitored for parent compounds disappearance in MRM mode using LC-MS/MS.
The percent remaining of test compounds and positive control in each sample was determined by considering peak area ratio in the 0 minute sample as 100%. The Half-life of compounds in microsomes is calculated by formula: […]
In vitro intrinsic clearance (CL'int) (units in mL/min/kg) was calculated using the formula.
[formula] • For liver microsomes, scaling factor used was 45 mg microsomal protein per gm liver. • * Indicates liver weight (gm) which varies species wise. For mice the liver weights are 90 gm.

42D^ENZR cells = test: Cell proliferation, BRN2 expressing 42D cells (crystal violet); format: cell-based; settings: for Growth Specificity: 42D (express BRN2) versus 16D (no BRN2) cells, result in words
Experimental: Step 3: Cell Proliferation
Plate 42DE^NZR (˜7000 cells per well) and 16D^CRPC (˜5000 cells per well) cells in 96 well plate with a volume of 100 μL per well. • 2. Next day 1 mL aliquots of media are combined with 3× the desired concentration of compounds. The aliquots are vortexed and 50 μL of each 3× concentration is added to the 100 μL of media in each well to give the ix desired concentration.
The following are the desired concentrations:
Approximately 72 hours later, 17 μL of 10% Glutaraldehyde is added to each well and plates are placed on a shaker for 20-30 minutes. • 4. Media is washed off the fixed cells by slow submersion in a container of water. Then the water is removed by tapping the plate upside down. • 5. 75 μL of Crystal Violet™ solution is added into the 96 well plates and placed on a shaker for ˜30 minutes. • 6. Media is washed off the fixed cells by repeated slow submersion in a container of water and the plates are allowed to dry over-night. • 7. Next day, 75 μL of Sorensen Solution is accurately pipetted into each well. The plates placed on a shaker for ˜30 minutes. • 8. Absorbance is measured in the plate at 590 nm.
There is a distinction in TABLES 1 and 2 difference between “Active” and “Specific” or “Specificity”.

[2] = read-out: IC50 (effective on both 42D and 16D cells)

SMILES	half-life at 1 μM [1] [min]	Met Stab % (60 mins) MLM [1] [%]	Growth Specificity (42D^ENZR cells; about 72 hours)	IC50 (42D^ENZR cells; [2]) [µM]	IC50 (42D^ENZR cells; 42D cells, proliferation, about 72 hours, read-out: 42D IC50) [µM]
CN(/N=C1\CCc2ccccc21)c1nc2ccccc2s1 [7-30]	11	1	Non-specific. Effective on both 42D and 16D cells	–	–
N#Cc1ccc2nc(N/N=C3\CCc4ccccc43)sc2c1 [7-33]	47	35	Non-specific. Effective on both 42D and 16D cells	–	–
Clc1cccc2nc(N/N=C3\CCc4ccccc43)sc12 [7-34]	6	0	Non-specific. Effective on both 42D or 16D cells	–	–
FC1(F)Cc2ccccc2/C1=N/Nc1nc2ccccc2s1 [7-35]	12	1	Not effective on 42D or 16D cells	–	–
c1ccc2c(c1)Cc1nn(-c3nc4ccccc4s3)cc1-2 [7-37]	16	7	Not effective on 42D or 16D cells	–	–
Clc1ccc2c(c1)/C(=N\Nc1nc3ccccc3s1)CC2 [7-38]	8	1	Not effective on 42D or 16D cells	–	–
Fc1cc(F)c2nc(N/N=C3\CCc4ccccc43)sc2c1 [7-39]	17	7	Not effective on 42D or 16D cells	–	–
O=C1/C(=N\Nc2nc3ccccc3s2)CC2C=CC=CC12 (stereo not shown) [7-41]	33	28	Not effective on 42D or 16D cells	–	–
c1ccc2c(c1)CCC2c1cnn(-c2nc3ccccc3s2)c1 (stereo not shown) [7-43]	10	1	Not effective on 42D or 16D cells	–	–
c1ccc2c(c1)CCC2c1ccc(-c2nc3ccccc3s2)o1 (stereo not shown) [7-44]	10	1	Not effective on 42D or 16D cells	–	–
Fc1cc(Br)c2c(c1)/C(=N\Nc1ccc3ccccc3n1)CC2 [7-45]	21	14	Not effective on 42D or 16D cells	–	–
Cc1ccc2nc(N/N=C3/CCc4ccccc43)sc2c1 [7-46]	13	5	Not effective on 42D or 16D cells	–	–
Fc1ccc2nc(N/N=C3/CCc4ccccc43)sc2c1 [7-47]	7	0	Not effective on 42D or 16D cells	–	–
c1ccc2c(c1)CC/C2=N/Nc1ccc2ccccc2c1 [7-48]	22	14	Not effective on 42D or 16D cells	–	–
c1ccc2c(c1)CN(Nc1nc3ccccc3s1)C2 [7-49]	14	1	Not effective on 42D or 16D cells	–	–
O=C(Nc1nc2ccccc2s1)C1CCc2ccccc21 (stereo not shown) [7-51]	12	1	Not effective on 42D or 16D cells	–	–
CC1(C)C/C(=N/Nc2nc3ccccc3s2)c2ccccc21 [7-53]	13	4	effective on both 42D and 16D cells	10	–
C/C(=N\Nc1nc2ccccc2s1)c1ccccc1C [7-54]	–	0	Not effective on 42D or 16D cells	–	–

SMILES	half-life at 1 μM [1] [min]	Met Stab % (60 mins) MLM [1] [%]	Growth Specificity (42D^ENZR cells; about 72 hours)	IC50 (42D^ENZR cells; [2]) [µM]	IC50 (42D^ENZR cells; 42D cells, proliferation, about 72 hours, read-out: 42D IC50) [µM]
Fc1ccc2c(c1)/C(=N\Nc1nc3ccccc3s1)CC2 [7-56]	8	0	effective on both 42D and 16D cells	10	–
Fc1cccc2c1/C(=N\Nc1nc3ccccc3s1)CC2 [7-58]	7	0	effective on both 42D and 16D cells	10	–
c1ccc(N/N=C2\CCc3ccccc32)nc1 [7-60]	8	0	Not effective on 42D or 16D cells	–	–
CC1(C)Cc2ccccc2/C1=N\Nc1nc2ccccc2s1 [7-61]	10	1	effective on both 42D and 16D cells	10	–
Cc1nc(N/N=C2/CCc3ccccc32)sc1C [7-63]	11	1	Not effective on 42D or 16D cells	–	–
c1ccc2c(c1)CC/C2=N/Nc1nccs1 [7-64]	8	0	Not effective on 42D or 16D cells	–	–
CC1(C)/C(=N/Nc2nc3ccccc3s2)C(=O)c2ccccc21 [7-67, (Z)-2-(2-(benzo[d]thiazol-2-yl)hydrazineylidene)-3,3-dimethyl-2,3-dihydro-1H-inden-1-one]	34	28	not specific	–	–
COC(=O)C1/C(=N/Nc2nc3ccccc3s2)Cc2ccccc21 (stereo not shown) [7-68, methyl (E)-2-(2-(benzo[d]thiazol-2-yl)hydrazineylidene)-2,3-dihydro-1H-indene-1-carboxylate]	< 5	0	not specific	–	–
O=C1c2ccccc2CC1/C=N/Nc1nc2ccccc2s1 (stereo not shown) [7-69, (E)-2-((2-(benzo[d]thiazol-2-yl)hydrazineylidene)methyl)-2,3-dihydro-1H-inden-1-one]	44	33	not specific	–	–
O=C1/C(=N\Nc2nc3ccccc3[nH]2)Cc2ccccc21 [7-76, (Z)-2-(2-(1H-benzo[d]imidazol-2-yl)hydrazineylidene)-2,3-dihydro-1H-inden-1-one]	10	1	Not effective on 42D or 16D cells	–	–
O=C1/C(=N\Nc2nc3ccccc3o2)Cc2ccccc21 [7-77, (Z)-2-(2-(benzo[d]oxazol-2-yl)hydrazineylidene)-2,3-dihydro-1H-inden-1-one]	16	8	Not specific	–	–
O=C1/C(=N\Nc2nc(-c3ccccc3)cs2)Cc2ccccc21 [7-78]	32	32	Not effective on 42D or 16D cells	–	–
Cn1c(N/N=C2/Cc3ccccc3C2=O)nc2ccccc21 [7-79]	6	2	Specific but weak	–	> 15
O=C1/C(=N\Nc2ccc3ccccc3n2)Cc2ccccc21 [7-80, (Z)-2-(2-(quinolin-2-yl) hydrazineylidene)-2,3-dihydro-1H-inden-1-one]	10	4	Specific to 42D	–	–
O=C1/C(=N\Nc2cc3ccccc3s2)Cc2ccccc21 [7-83, (Z)-2-(2-(benzo[b]thiophen-2-yl)hydrazineylidene)-2,3-dihydro-1H-inden-1-one]	17	16	Not effective on 42D or 16D cells	–	–
O=c1c(=NNc2nc3ccccc3s2)c(=O)c2ccccc12 [7-85]	32	25	Not specific	–	–
O=C(NNc1nc2ccccc2s1)C1Cc2ccccc2C1=O (stereo not shown) [7-86]	19	18	Not specific	–	–
